# Test results reported in US5283254A, “2-(imidazol-1-yl)-2-benzylethyldiene-aminoxyalkanoic acid derivatives” (Farmitalia Carlo Erba S.r.l., priority 1991, dated 1994).
# Experiments:
# [1] = target: T1, TxA2 Synthase (Rattus norvegicus, UniProt P49430); assay: Inhibition of TxA2 synthase activity: TxB2 production in rat whole blood during clotting (serum, RIA), in vitro; assay type: cell-based; settings: for inhibitory activity on TxA2 synthesis (in words): rat
# T1 construct: TxB2 generated in whole blood during clotting; endogenous in cells; host or cells: rat whole blood (blood cells, mainly platelets), clotted 1 h at 37 °C
# T1 sequence (P49430 1-533): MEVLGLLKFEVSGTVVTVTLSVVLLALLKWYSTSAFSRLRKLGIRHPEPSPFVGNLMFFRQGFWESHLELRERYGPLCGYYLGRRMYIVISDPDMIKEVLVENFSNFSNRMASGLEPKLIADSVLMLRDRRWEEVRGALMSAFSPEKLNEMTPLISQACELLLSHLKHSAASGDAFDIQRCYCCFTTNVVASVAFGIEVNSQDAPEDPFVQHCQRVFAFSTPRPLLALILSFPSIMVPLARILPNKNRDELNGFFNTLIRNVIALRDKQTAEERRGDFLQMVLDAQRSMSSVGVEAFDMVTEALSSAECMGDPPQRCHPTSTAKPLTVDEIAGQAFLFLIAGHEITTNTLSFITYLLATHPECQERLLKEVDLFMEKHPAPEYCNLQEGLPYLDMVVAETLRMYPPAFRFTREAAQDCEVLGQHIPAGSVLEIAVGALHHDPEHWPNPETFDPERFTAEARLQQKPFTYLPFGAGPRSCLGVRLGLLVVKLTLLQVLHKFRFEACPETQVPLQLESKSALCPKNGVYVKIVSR
# Experimental: The compounds of formula (I) were for example tested for their ability to inhibit TxA2 Synthase activity (as reflected by TxB2 generated in whole blood during clotting or in isolated glomeruli) in vitro in the rat.
# The in vitro experiments were carried out as follows:
# The effect of the compounds on TxA2 synthesis was evaluated in serum.
# Blood was withdrawn from the abdominal aorta of the animals under light ether anesthesia.
# Samples were then allowed to clot for 1 h at 37° C., centrifuged at 3000 rpm for 10 min, serum collected and stored at -20° C. until assayed. TxB2 levels were determined by RIA according to previously described procedures [Patrono et al.--Thromb. Res. 17, 3/4, 317, 1980] using highly specific antibody.
# [2] = target: T2, TxA2 receptor (Homo sapiens, UniProt P21731); assay: [3H]-SQ 29,548 binding displacement in washed human platelets (TxA2 antagonism)
# T2 construct: endogenous in cells; host or cells: washed human platelets from healthy volunteers
# T2 sequence (P21731 1-343): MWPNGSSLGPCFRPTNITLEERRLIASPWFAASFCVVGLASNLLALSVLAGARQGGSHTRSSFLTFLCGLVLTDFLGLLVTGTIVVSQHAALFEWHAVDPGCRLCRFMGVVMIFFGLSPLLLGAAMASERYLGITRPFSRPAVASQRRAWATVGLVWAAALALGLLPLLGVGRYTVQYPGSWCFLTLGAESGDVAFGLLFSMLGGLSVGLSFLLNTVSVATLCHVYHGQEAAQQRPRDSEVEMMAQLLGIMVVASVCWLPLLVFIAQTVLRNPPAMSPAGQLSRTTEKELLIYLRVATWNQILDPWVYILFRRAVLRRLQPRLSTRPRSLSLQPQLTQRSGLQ
# Experimental: Platelet rich plasma (PRP), obtained by centrifugation of the blood at 200×g for 20 min, is washed twice (1000×g for 10 min). […] For displacement experiments various concentrations (10^-9 -10^-4 M) of competing ligands were added and incubated for 30 min at 25° C.
# The binding data were analysed by computerized non-linear curve fitting using the Ligand program and expressed as IC50.
# [3] = tested on: TxA2 synthase; settings: known compound; cited from earlier work
"IC50 ([1]; rat whole blood, n = 8 replicates, limits for p = 0.95 printed on following line, clotting 1 h at 37° C.)",inhibitory activity on TxA2 synthesis (in words) ([1]; listed as FCE 27109),"IC50 ([2]; 5 nM [3H]-SQ 29,548, 30 min at 25° C., pH 7.4)",Compound,inhibitory activity on TxA2 synthesis (in words) [1],affinity for the receptor / TxA2 antagonism (in words) [2],TxA2 synthase inhibitory activity (in words) [3]
390 nM,active as TxA2 synthase inhibitor,38.7 nM,"O=C(O)CCCCO/N=C(\c1ccccc1)C(Cc1ccc(F)cc1)n1ccnc1 (racemic) [FCE 27317, (±)-(E)-5-[1-phenyl-2-(imidazol-1-yl)-2-(4-fluorobenzyl)ethylidene]aminoxypentanoic acid]",marked inhibitory activity on TxA2 synthesis significantly more potent than that of reference compounds Dazoxiben and ASA,good affinity for the receptor better than that showed by the known compound Sulotroban (BM 13177),–
–,–,–,O=C(O)COc1ccc(CCNS(=O)(=O)c2ccccc2)cc1 [BM 13177],–,–,devoid of TxA2 synthase inhibitory activity
